This note sets out measurements from patent US20130158024A1, “TRICYCLIC NECROSTATIN COMPOUNDS” (priority 2005, published 2013).

Series [1] has as its system FADD-deficient Jurkat T cells treated with TNF-α. Description: Inhibition of necroptosis (CICD) in FADD-deficient Jurkat T cells treated with TNF-α, ATP-based viability. The class given is cell-based, human. The following applies: Homo sapiens, Jurkat, 24 h; read-out: EC50 (μM) for inhibition of necroptosis.

As usually defined, the melting point is the temperature of the solid-liquid transition. What is called EC50 is the concentration needed to bring the measured effect to its halfway point. Consider `COc1cc2c(cc1OC)C1=NN(C(C)=O)[C@@H](c3ccc(F)cc3)[C@H]1CC2` (relative stereo) [Compound 164, (3R,3aR)-rel-2-acetyl-3,3a,4,5-tetrahydro-3-(4-fluorophenyl)-7,8-dimethoxy-2H-benz[g]indazole], for which the melting point was in the range of 189 to 193 °C. In series [1], the half-maximal effective concentration (EC50) is above 100 µM.

Regarding `COc1ccc2c(c1)C1=NN(C(C)=O)[C@@H](c3cccc(F)c3)[C@H]1CC2` (relative stereo) [Compound 166, (3R,3aR)-rel-2-acetyl-3,3a,4,5-tetrahydro-3-(3-fluorophenyl)-8-methoxy-2H-benz[g]indazole], the melting point was in the range of 176 to 177 °C. The 50% effective concentration (EC50) in series [1] was 0.68 ± 0.009 µM.

For `CC(=O)N1N=C2c3cc(C)ccc3OC[C@H]2[C@@H]1c1ccc(F)cc1` (relative stereo) [Compound 184, (3R,3aS)-rel-2-acetyl-2,3,3a,4-tetrahydro-3-(4-fluorophenyl)-8-methyl-[1]benzopyrano[4,3-c]pyrazole], the melting point was 218 to 220 °C. For the same molecule, in series [1], the half-maximal effective concentration (EC50) was above 100 µM.

`COc1ccc2c(c1)C1=NN(C(C)=O)[C@@H](c3cccc(F)c3)[C@@H]1CC2` (relative stereo) [Compound 200, (3R,3aS)-rel-2-acetyl-3,3a,4,5-tetrahydro-3-(3-fluorophenyl)-8-methoxy-2H-benz[g]indazole] returned a melting point of 196 to 199 °C.

As to `COc1ccc2c(c1)C1=NN(C(C)=O)[C@@H](c3ccc4c(c3)OCCO4)[C@H]1CC2` (relative stereo) [Compound 178, (3R,3aR)-rel-2-acetyl-3,3a,4,5-tetrahydro-3-(3,4-ethylenedioxyphenyl)-8-methoxy-2H-benz[g]indazole], the melting point was 189 to 193 °C. For the same molecule, the concentration for a half-maximal effect (EC50) in series [1] turned out to be 2.1 ± 0.65 µM.

In the case of `COc1ccc2c(c1)C1=NN(C(C)=O)[C@@H](c3ccc(F)cc3)[C@@H]1CO2` (relative stereo) [Compound 211, (3R,3aS)-rel-2-acetyl-2,3,3a,4-tetrahydro-3-(4-fluorophenyl)-8-methoxy-[1]benzopyrano[4,3-c]pyrazole], the melting point lay within 174 to 176 °C.

`COc1ccc2c(c1)C1=NN(C(C)=O)[C@@H](c3ccc(F)cc3)[C@H]1CO2` (relative stereo) [Compound 186, (3R,3aR)-rel-2-acetyl-2,3,3a,4-tetrahydro-3-(4-fluorophenyl)-8-methoxy-[1]benzopyrano[4,3-c]pyrazole] displayed a melting point of 245 °C. Further, the EC50 in series [1] is 4.8 ± 1.3 µM.

`COc1ccc2c(c1)C1=NN(C(C)=O)[C@@H](c3ccc4c(c3)OCCO4)[C@@H]1CC2` (relative stereo) [Compound 206, (3R,3aS)-rel-2-acetyl-3,3a,4,5-tetrahydro-3-(3,4-ethylenedioxyphenyl)-8-methoxy-2H-benz[g]indazole] yielded a melting point of 194 to 197 °C.

In turn, `COc1ccc([C@H]2[C@@H]3CCc4ccc(OC)cc4C3=NN2C=O)cc1` (relative stereo) [Compound 195, (3R,3aS)-rel-2-formyl-3,3a,4,5-tetrahydro-3-(4-methoxyphenyl)-8-methoxy-2H-benz[g] indazole] showed a melting point of 166 to 168 °C.

The molecule `COc1ccc2c(c1)C1=NN(C(C)=O)[C@@H](c3ccc4c(c3)OCO4)[C@@H]1CC2` (relative stereo) [Compound 205, (3R,3aS)-rel-2-acetyl-3,3a,4,5-tetrahydro-3-(3,4-methylenedioxyphenyl)-8-methoxy-2H-benz[g]indazole] had a melting point of 165 to 169 °C.

Molecule `COc1cc2c(cc1OC)C1=NN(C(C)=O)[C@@H](c3ccc(F)cc3)[C@@H]1CC2` (relative stereo) [Compound 198, (3R,3aS)-rel-2-acetyl-3,3a,4,5-tetrahydro-3-(4-fluorophenyl)-7,8-dimethoxy-2H-benz[g]indazole] returned a melting point of 231 to 233 °C.
